Reference: patent publication US20240228504A1, “SUBSTITUTED TRICYCLIC AMIDES, ANALOGUES THEREOF, AND METHODS USING SAME” (Arbutus Biopharma Corporation, priority 2020, published 2024)
Where two headings read alike, the source gives them in different places.

System: HBV rcDNA in HepDE19 cells
Assay: HepDE19 assay with bDNA quantitation of HBV rcDNA
Format: cell-based, hepatitis B virus
Conditions: inhibition of rcDNA formation, bDNA quantitation, read-out: DE-19bDNA EC50
[1] = Hepatitis B virus, HepDE19, HepDE19 assay

SMILES | EC50 [1] [nM] | EC50 (HepDE19 assay) [nM]
CN(C(=O)c1ccc(C(F)(F)F)c(F)c1)C1COCc2[nH]c(=O)c3ccccc3c21 (racemic) [Compound 132, 3-Fluoro-N-methyl-N-(6-oxo-1,4,5,6-tetrahydro-2H-pyrano[3,4-c]isoquinolin-1-yl)-4-(trifluoromethyl)benzamide] | 60 | 
CN(C(=O)c1ccc(C(F)(F)F)c(F)c1)C1COCc2[nH]c(=O)c3cscc3c21 (racemic) [Compound 133, 3-Fluoro-N-methyl-N-(4-oxo-4,5,8,9-tetrahydro-6H-pyrano[3,4-b]thieno[3,4-d]pyridin-9-yl)-4-(trifluoromethyl)benzamide] | 60 | 
CN(C(=O)c1ccc(C(F)(F)F)c(F)c1)C1COCc2[nH]c(=O)c3cc(C#N)ccc3c21 (racemic) [Compound 134, N-(8-Cyano-6-oxo-1,4,5,6-tetrahydro-2H-pyrano[3,4-c]isoquinolin-1-yl)-3-fluoro-N-methyl-4-(trifluoromethyl)benzamide] | 2800 | 
CN(C(=O)c1cc2sc(Cl)cc2[nH]1)C1COCc2[nH]c(=O)c3cc(F)ccc3c21 (racemic) [Compound 452, 2-Chloro-N-(8-fluoro-6-oxo-1,4,5,6-tetrahydro-2H-pyrano[3,4-c]isoquinolin-1-yl)-N-methyl-4H-thieno[3,2-b]pyrrole-5-carboxamide] | 80 | 
Cc1cc(F)cc2[nH]c(C(=O)N(C)C3COCc4[nH]c(=O)c5cc(F)ccc5c43)cc12 (racemic) [Compound 455, 6-Fluoro-N-(8-fluoro-6-oxo-1,4,5,6-tetrahydro-2H-pyrano[3,4-c]isoquinolin-1-yl)-N,4-dimethyl-1H-indole-2-carboxamide] | 20 | 
CN(C(=O)c1cc2ccccc2[nH]1)C1COCc2[nH]c(=O)c3cc(F)ccc3c21 (single isomer, unassigned) [Compound 1, N-(8-Fluoro-6-oxo-1,4,5,6-tetrahydro-2H-pyrano[3,4-c]isoquinolin-1-yl)-N-methyl-1H-indole-2-carboxamide] |  | 8600
CN(C(=O)c1cc2ccccc2[nH]1)C1COCc2[nH]c(=O)c3cc(F)ccc3c21 (single isomer, unassigned) [Compound 2, N-(8-Fluoro-6-oxo-1,4,5,6-tetrahydro-2H-pyrano[3,4-c]isoquinolin-1-yl)-N-methyl-1H-indole-2-carboxamide] |  | 20
CN(C(=O)[C@@H]1Cc2ccccc2N1)C1COCc2[nH]c(=O)c3cc(F)ccc3c21 (single isomer, unassigned) [Compound 4] | 130 | 
CN(C(=O)C1Cc2cc(F)ccc2N1)C1COCc2[nH]c(=O)c3cc(F)c(F)cc3c21 (single isomer, unassigned) [Compound 5, N-(8,9-Difluoro-6-oxo-1,4,5,6-tetrahydro-2H-pyrano[3,4-c]isoquinolin-1-yl)-5-fluoro-N-methylindoline-2-carboxamide] |  | 20
CN(C(=O)C1Cc2cc(F)ccc2N1)C1COCc2[nH]c(=O)c3cc(F)c(F)cc3c21 (single isomer, unassigned) [Compound 6, N-(8,9-Difluoro-6-oxo-1,4,5,6-tetrahydro-2H-pyrano[3,4-c]isoquinolin-1-yl)-5-fluoro-N-methylindoline-2-carboxamide] |  | 9600
CN(C(=O)C1Cc2cc(F)ccc2N1)C1COCc2[nH]c(=O)c3cc(F)c(F)cc3c21 (single isomer, unassigned) [Compound 7, N-(8,9-Difluoro-6-oxo-1,4,5,6-tetrahydro-2H-pyrano[3,4-c]isoquinolin-1-yl)-5-fluoro-N-methylindoline-2-carboxamide] |  | 10
CN(C(=O)C1Cc2cc(F)ccc2N1)C1COCc2[nH]c(=O)c3cc(F)c(F)cc3c21 (single isomer, unassigned) [Compound 8, N-(8,9-Difluoro-6-oxo-1,4,5,6-tetrahydro-2H-pyrano[3,4-c]isoquinolin-1-yl)-5-fluoro-N-methylindoline-2-carboxamide] |  | 1400
CN(C(=O)c1cc2c(F)cccn2c1)C1COCc2[nH]c(=O)c3cc(F)c(F)cc3c21 (single isomer, unassigned) [Compound 9, N-(8,9-Difluoro-6-oxo-1,4,5,6-tetrahydro-2H-pyrano[3,4-c]isoquinolin-1-yl)-8-fluoro-N-methylindolizine-2-carboxamide] |  | 3300
CN(C(=O)c1cc2c(F)cccn2c1)C1COCc2[nH]c(=O)c3cc(F)c(F)cc3c21 (single isomer, unassigned) [Compound 10, N-(8,9-Difluoro-6-oxo-1,4,5,6-tetrahydro-2H-pyrano[3,4-c]isoquinolin-1-yl)-8-fluoro-N-methylindolizine-2-carboxamide] |  | 10
CN(C(=O)c1cc2ccccn2c1)C1COCc2[nH]c(=O)c3cc(F)c(F)cc3c21 (single isomer, unassigned) [Compound 11, N-(8,9-Difluoro-6-oxo-1,4,5,6-tetrahydro-2H-pyrano[3,4-c]isoquinolin-1-yl)-N-methylindolizine-2-carboxamide] |  | 5300
CN(C(=O)c1cc2ccccn2c1)C1COCc2[nH]c(=O)c3cc(F)c(F)cc3c21 (single isomer, unassigned) [Compound 12, N-(8,9-Difluoro-6-oxo-1,4,5,6-tetrahydro-2H-pyrano[3,4-c]isoquinolin-1-yl)-N-methylindolizine-2-carboxamide] |  | 10
CN(C(=O)c1cc2c(Cl)cccn2c1)C1COCc2[nH]c(=O)c3cc(F)c(F)cc3c21 (single isomer, unassigned) [Compound 17, 8-Chloro-N-(8,9-difluoro-6-oxo-1,4,5,6-tetrahydro-2H-pyrano[3,4-c]isoquinolin-1-yl)-N-methylindolizine-2-carboxamide] |  | 1900
CN(C(=O)c1cc2c(Cl)cccn2c1)C1COCc2[nH]c(=O)c3cc(F)c(F)cc3c21 (single isomer, unassigned) [Compound 18, 8-Chloro-N-(8,9-difluoro-6-oxo-1,4,5,6-tetrahydro-2H-pyrano[3,4-c]isoquinolin-1-yl)-N-methylindolizine-2-carboxamide] |  | 10
CN(C(=O)c1cc2c(F)cccc2[nH]1)C1COCc2[nH]c(=O)c3cc(F)ccc3c21 (single isomer, unassigned) [Compound 19, 4-Fluoro-N-(8-fluoro-6-oxo-1,4,5,6-tetrahydro-2H-pyrano[3,4-c]isoquinolin-1-yl)-N-methyl-1H-indole-2-carboxamide] |  | 1500
CN(C(=O)c1cc2c(F)cccc2[nH]1)C1COCc2[nH]c(=O)c3cc(F)ccc3c21 (single isomer, unassigned) [Compound 20, 4-Fluoro-N-(8-fluoro-6-oxo-1,4,5,6-tetrahydro-2H-pyrano[3,4-c]isoquinolin-1-yl)-N-methyl-1H-indole-2-carboxamide] |  | 20
CN(C(=O)c1cc2ccccc2[nH]1)C1COCc2[nH]c(=O)c3cc(F)c(F)cc3c21 (single isomer, unassigned) [Compound 21, N-(8,9-Difluoro-6-oxo-1,4,5,6-tetrahydro-2H-pyrano[3,4-c]isoquinolin-1-yl)-N-methyl-1H-indole-2-carboxamide] |  | 3300
CN(C(=O)c1cc2ccccc2[nH]1)C1COCc2[nH]c(=O)c3cc(F)c(F)cc3c21 (single isomer, unassigned) [Compound 22, N-(8,9-Difluoro-6-oxo-1,4,5,6-tetrahydro-2H-pyrano[3,4-c]isoquinolin-1-yl)-N-methyl-1H-indole-2-carboxamide] |  | 10
CN(C(=O)c1cc2c(F)cccc2[nH]1)C1COCc2[nH]c(=O)c3cc(F)c(F)cc3c21 (single isomer, unassigned) [Compound 23, N-(8,9-Difluoro-6-oxo-1,4,5,6-tetrahydro-2H-pyrano[3,4-c]isoquinolin-1-yl)-4-fluoro-N-methyl-1H-indole-2-carboxamide] |  | 4500
CN(C(=O)c1cc2c(F)cccc2[nH]1)C1COCc2[nH]c(=O)c3cc(F)c(F)cc3c21 (single isomer, unassigned) [Compound 24, N-(8,9-Difluoro-6-oxo-1,4,5,6-tetrahydro-2H-pyrano[3,4-c]isoquinolin-1-yl)-4-fluoro-N-methyl-1H-indole-2-carboxamide] |  | 4
CN(C(=O)c1cc2ccc(F)cc2[nH]1)C1COCc2[nH]c(=O)c3cc(F)c(F)cc3c21 (single isomer, unassigned) [Compound 25, N-(8,9-Difluoro-6-oxo-1,4,5,6-tetrahydro-2H-pyrano[3,4-c]isoquinolin-1-yl)-6-fluoro-N-methyl-1H-indole-2-carboxamide] |  | 820
CN(C(=O)c1cc2ccc(F)cc2[nH]1)C1COCc2[nH]c(=O)c3cc(F)c(F)cc3c21 (single isomer, unassigned) [Compound 26, N-(8,9-Difluoro-6-oxo-1,4,5,6-tetrahydro-2H-pyrano[3,4-c]isoquinolin-1-yl)-6-fluoro-N-methyl-1H-indole-2-carboxamide] |  | 10
CN(C(=O)c1cc2cc(F)ccc2[nH]1)C1COCc2[nH]c(=O)c3cc(F)c(F)cc3c21 (single isomer, unassigned) [Compound 27, N-(8,9-Difluoro-6-oxo-1,4,5,6-tetrahydro-2H-pyrano[3,4-c]isoquinolin-1-yl)-5-fluoro-N-methyl-1H-indole-2-carboxamide] |  | 370
CN(C(=O)c1cc2cc(F)ccc2[nH]1)C1COCc2[nH]c(=O)c3cc(F)c(F)cc3c21 (single isomer, unassigned) [Compound 28, N-(8,9-Difluoro-6-oxo-1,4,5,6-tetrahydro-2H-pyrano[3,4-c]isoquinolin-1-yl)-5-fluoro-N-methyl-1H-indole-2-carboxamide] |  | 4
CN(C(=O)c1cc2cc(F)ccc2[nH]1)C1COCc2[nH]c(=O)c3cc(F)ccc3c21 (single isomer, unassigned) [Compound 29, 5-Fluoro-N-(8-fluoro-6-oxo-1,4,5,6-tetrahydro-2H-pyrano[3,4-c]isoquinolin-1-yl)-N-methyl-1H-indole-2-carboxamide] |  | 1500
